Biological target: T1, mouse Tas2r144 (Mus musculus, UniProt Q7TQB8)
T1 construct: expressed in transfected cells; host or cells: HEK293T-Gα16gust44
Experiment: Calcium imaging assay (FLIPR), HEK293T-Gα16gust44 cells transfected with mouse Tas2r144
Type: cell-based
Conditions: for Δ F/F: Tas2r144
Procedure: This set of bile acids was chosen because of their commercial availability in high purities, their diversity within the class of bile acids and their previous detection and quantitation in human blood. Stock solutions were prepared in DMSO.
As basal growth medium for the HEK293T-Gα16gust44 cell line[17],[59] served Dulbecco’s modified eagle medium (DMEM) (Thermo Fisher Scientific, Darmstadt, Germany) supplemented with 10 % fetal bovine serum (Sigma-Aldrich, Steinheim, Germany), 2 mM L-glutamine (Sigma-Aldrich, Steinheim, Germany), 100 units/ml penicillin (Sigma Aldrich, Steinheim, Germany) and 100 µg/ml streptomycin (Sigma Aldrich, Steinheim, Germany). Growth conditions were 37 °C, 5 % CO2 and saturated air-humidity[60].
HEK293T-Gα16gust44 cells were seeded on poly-D-lysine (10 µg/ml) coated 96-well plates to reach a confluence of 40-60 % the next day. For transient transfection 150 ng of plasmid DNA containing the receptor of interest and 0.3 µl lipofectamine 2000 (Thermo Fisher Scientific, Darmstadt, Germany) per well were used and transfection took place according to the manual of lipofectamine 2000. […] The empty vector DNA (mock) was transfected as negative control[14],[41].
Cells were loaded using the calcium-sensitive fluorescent dye Fluo-4-AM (Abcam, Cambridge, Great Britain) in the presence of 2.5 mM probenecid (Sigma-Aldrich, Steinheim, Germany) the day after transfection[13],[41]. 1 h after loading, cells were washed with C1 buffer using a BioTek Cell Washer, incubated in the dark for half an hour and washed again. For automated agonist application and measurement of fluorescence changes, a FLIPR^TETRA device (Molecular Devices, San José, United States) was used. Viability of cells was tested by application of 100 nM Somatostatin 14 (Bachem, Bubendorf, Switzerland)[42].
Measured data were negative control corrected by subtracting the signal of the mock-transfected cells and exported to Microsoft Excel using the FLIPR software ScreenWorks 4.2. In Microsoft Excel software, standardization of maximum fluorescence intensities to the basal fluorescence and normalization to the buffer-only control was done to calculate the relative fluorescence changes (ΔF/F).
Initial screening experiments performed in duplicate wells were confirmed by at least one replication and representative traces were selected for display. All dose-response relationships were determined by three independent experiments (biological replicates) performed in duplicates (technical replicates). Threshold concentrations, defined as lowest substance concentrations leading to statistically significant elevated fluorescence changes in receptor-transfected cells compared with empty vector-transfected cells, were determined using SigmaPlot with Student’s t-test to evaluate statistical significance (p < 0.01).

T1 sequence (Q7TQB8 whole entry): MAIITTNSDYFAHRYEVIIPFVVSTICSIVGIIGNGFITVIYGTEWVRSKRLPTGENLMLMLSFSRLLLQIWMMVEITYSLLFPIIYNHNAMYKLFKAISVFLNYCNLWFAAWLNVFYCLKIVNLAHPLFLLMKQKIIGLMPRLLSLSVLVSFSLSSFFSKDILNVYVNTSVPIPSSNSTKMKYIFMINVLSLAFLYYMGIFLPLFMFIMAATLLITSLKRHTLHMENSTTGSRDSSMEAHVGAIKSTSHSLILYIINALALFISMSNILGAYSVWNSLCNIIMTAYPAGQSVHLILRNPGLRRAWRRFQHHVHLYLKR

Compound: C[C@H](CCC(=O)NCCS(=O)(=O)O)[C@H]1CC[C@H]2[C@@H]3[C@H](O)C[C@@H]4C[C@H](O)CC[C@]4(C)[C@H]3C[C@H](O)[C@]12C [Taurocholic Acid, taurocholic acid]
- Δ F/F (conc. 0,01 mM): -0.002199
- Δ F/F (conc. 0,1 mM): 0.02935
- Δ F/F (conc. 0,03 mM): 0.001887
- Δ F/F (conc. 0,3 mM): 0.09426
- Δ F/F (conc. 0,003 mM): -2.869e-5
- RLU (Time 0 s): 0 RLU
- RLU (Time 2 s): 20.3472 RLU
- RLU (Time 4 s): -2.315 RLU
- RLU (Time 6 s): 2.885 RLU
- RLU (Time 8 s): 19.0475 RLU
- RLU (Time 12 s): 10.0521 RLU
- RLU (Time 14 s): 38.5551 RLU
- RLU (Time 16 s): 31.9896 RLU
- RLU (Time 18 s): 16.9759 RLU
- RLU (Time 18.781 s): 35.5911 RLU
- RLU (Time 20.781 s): -26.0614 RLU
- RLU (Time 22.781 s): 10.3855 RLU
- RLU (Time 24.781 s): 42.5149 RLU
- RLU (Time 26.781 s): 75.1117 RLU
- RLU (Time 28.781 s): 107.959 RLU
- RLU (Time 30.781 s): 191.931 RLU
- RLU (Time 32.781 s): 233.393 RLU
- RLU (Time 34.781 s): 329.647 RLU
- RLU (Time 36.781 s): 353.155 RLU
- RLU (Time 38.781 s): 375.923 RLU
- RLU (Time 40.781 s): 418.403 RLU
- RLU (Time 42.781 s): 459.472 RLU
- RLU (Time 44.781 s): 478.994 RLU
- RLU (Time 46.781 s): 502.94 RLU
- RLU (Time 48.781 s): 488.439 RLU
- RLU (Time 50.781 s): 507.687 RLU
- RLU (Time 52.781 s): 535.446 RLU
- RLU (Time 54.781 s): 537.48 RLU
- RLU (Time 56.781 s): 552.298 RLU
- RLU (Time 58.781 s): 553.568 RLU
- RLU (Time 60.781 s): 540.78 RLU
- RLU (Time 62.781 s): 553.576 RLU
- RLU (Time 64.781 s): 587.565 RLU
- RLU (Time 66.781 s): 607.94 RLU
- RLU (Time 68.781 s): 577.506 RLU
- RLU (Time 70.781 s): 560.61 RLU
- RLU (Time 72.781 s): 573.499 RLU
- RLU (Time 74.781 s): 563.961 RLU
- RLU (Time 76.781 s): 534.766 RLU
- RLU (Time 78.781 s): 571.912 RLU
- RLU (Time 80.781 s): 551.232 RLU
- RLU (Time 82.781 s): 526.613 RLU
- RLU (Time 84.781 s): 546.451 RLU
- RLU (Time 86.781 s): 562.077 RLU
- RLU (Time 88.781 s): 533.968 RLU
- RLU (Time 90.781 s): 548.478 RLU
- RLU (Time 92.781 s): 529.823 RLU
- RLU (Time 94.781 s): 519.583 RLU
- RLU (Time 96.781 s): 507.965 RLU
- RLU (Time 98.781 s): 551.349 RLU
- RLU (Time 100.781 s): 524.649 RLU
- RLU (Time 102.781 s): 541.47 RLU
- RLU (Time 104.781 s): 532.417 RLU
- RLU (Time 106.781 s): 501.886 RLU
- RLU (Time 108.781 s): 527.817 RLU
- RLU (Time 110.781 s): 463.149 RLU
- RLU (Time 112.781 s): 531.02 RLU
- RLU (Time 114.781 s): 478.341 RLU
- RLU (Time 116.781 s): 478.013 RLU
- RLU (Time 118.781 s): 466.916 RLU
- RLU (Time 120.781 s): 480.033 RLU
- RLU (Time 122.781 s): 446.768 RLU
- RLU (Time 124.781 s): 466.738 RLU
- RLU (Time 126.781 s): 436.51 RLU
- RLU (Time 128.781 s): 391.35 RLU
- RLU (Time 130.781 s): 423.189 RLU
- RLU (Time 132.781 s): 388.666 RLU
- RLU (Time 134.781 s): 393.586 RLU
- RLU (Time 136.781 s): 381.514 RLU
- RLU (Time 137.562 s): 357.695 RLU
- RLU (Time 143.562 s): 342.181 RLU
- RLU (Time 149.562 s): 317.247 RLU
- RLU (Time 155.562 s): 281.598 RLU
- RLU (Time 161.562 s): 257.735 RLU
- RLU (Time 167.562 s): 210.766 RLU
- RLU (Time 173.562 s): 206.542 RLU
- RLU (Time 179.562 s): 190.508 RLU
- RLU (Time 185.562 s): 200.355 RLU
- RLU (Time 191.562 s): 160.215 RLU
- RLU (Time 197.562 s): 155.746 RLU
- RLU (Time 203.562 s): 134.432 RLU
- RLU (Time 209.562 s): 105.802 RLU
- RLU (Time 215.562 s): 143.523 RLU
- RLU (Time 221.562 s): 59.3524 RLU
- RLU (Time 227.562 s): 55.9412 RLU
- RLU (Time 233.562 s): 52.6104 RLU
- RLU (Time 239.562 s): 63.4802 RLU
- RLU (Time 245.562 s): 58.9605 RLU
- RLU (Time 293.562 s): 59.2604 RLU
- RLU (Time 299.562 s): 83.1975 RLU
- RLU (Time 305.562 s): 80.6402 RLU
- RLU (Time 311.562 s): 35.6084 RLU
- RLU (Time 317.562 s): 31.2984 RLU
- RLU (Time 323.562 s): -1.058 RLU
- RLU (Time 329.562 s): 12.6222 RLU
- RLU (Time 335.562 s): -16.6341 RLU
- RLU (Time 341.562 s): 9.34 RLU
- RLU (Time 347.562 s): 17.8158 RLU
- RLU (Time 353.562 s): 33.5062 RLU
- RLU (Time 359.562 s): 34.8754 RLU
- Activation threshold concentration Tas2r144 (p < 0.01 vs empty vector): 300 µM
